The results in this text go back to ChEMBL document CHEMBL2073931, “Interaction between methotrexate and nonsteroidal anti-inflammatory drugs in organic anion transporter” (Eur J Pharmacol, 2000).

This series has as its target T1, Solute carrier family 22 member 6 (Rattus norvegicus, UniProt O35956).
T1 sequence (O35956 whole entry): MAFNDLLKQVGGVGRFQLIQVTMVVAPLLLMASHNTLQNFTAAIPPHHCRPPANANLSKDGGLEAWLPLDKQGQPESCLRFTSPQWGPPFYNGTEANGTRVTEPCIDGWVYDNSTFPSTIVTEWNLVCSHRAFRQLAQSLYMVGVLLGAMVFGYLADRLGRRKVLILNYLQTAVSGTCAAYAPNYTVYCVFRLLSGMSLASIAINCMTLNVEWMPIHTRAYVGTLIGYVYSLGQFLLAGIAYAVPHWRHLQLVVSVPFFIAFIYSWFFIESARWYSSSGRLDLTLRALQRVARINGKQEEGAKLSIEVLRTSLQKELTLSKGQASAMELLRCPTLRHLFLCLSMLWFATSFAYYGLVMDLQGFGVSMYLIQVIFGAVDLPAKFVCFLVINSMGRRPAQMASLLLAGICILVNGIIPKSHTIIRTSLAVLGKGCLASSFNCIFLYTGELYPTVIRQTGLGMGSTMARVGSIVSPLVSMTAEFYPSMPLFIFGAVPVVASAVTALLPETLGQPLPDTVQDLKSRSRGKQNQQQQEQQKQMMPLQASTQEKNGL
Put plainly: TP_TRANSPORTER: inhibition of MTX uptake in Xenopus laevis oocytes. The series is classed as functional, cell-based, Oocyte. The conditions noted are these: for Activity: xenopus laevis, oocyte.

`CC(C(=O)O)c1cccc(C(=O)c2ccccc2)c1` (centres undefined) [KETOPROFEN]: 500 nM corresponded to half-maximal inhibition (IC50). On to `COc1ccc2c(c1)c(CC(=O)O)c(C)n2C(=O)c1ccc(Cl)cc1` [INDOMETHACIN], for which the affinity, expressed as Ki, was 4200 nM.

On to `CCCCC1C(=O)N(c2ccccc2)N(c2ccccc2)C1=O` [PHENYLBUTAZONE], for which the Activity entry was “inhibitor [+]”. Still for that read-out and setting: the same measure for `O=C(O)c1ccccc1Nc1cccc(C(F)(F)F)c1` [FLUFENAMIC ACID]: “inhibitor [+]”.
